From ChEMBL document CHEMBL5584296, “Discovery of Novel Pyrimidine-Based Derivatives as Nav1.2 Inhibitors with Efficacy in Mouse Models of Epilepsy” (J Med Chem, 2024)

Key:
[1] = target: T1, Sodium channel protein type 2 subunit alpha (Homo sapiens, UniProt Q99250); assay: Inhibition of human Nav1.2 expressed in HEK293 cells assessed as test to control ratio at 1 uM measured after 5 mins by whole cell voltage clamp electrophysiological analysis; format: cell-based
Target sequence in this assay (Q99250 whole entry, looked up): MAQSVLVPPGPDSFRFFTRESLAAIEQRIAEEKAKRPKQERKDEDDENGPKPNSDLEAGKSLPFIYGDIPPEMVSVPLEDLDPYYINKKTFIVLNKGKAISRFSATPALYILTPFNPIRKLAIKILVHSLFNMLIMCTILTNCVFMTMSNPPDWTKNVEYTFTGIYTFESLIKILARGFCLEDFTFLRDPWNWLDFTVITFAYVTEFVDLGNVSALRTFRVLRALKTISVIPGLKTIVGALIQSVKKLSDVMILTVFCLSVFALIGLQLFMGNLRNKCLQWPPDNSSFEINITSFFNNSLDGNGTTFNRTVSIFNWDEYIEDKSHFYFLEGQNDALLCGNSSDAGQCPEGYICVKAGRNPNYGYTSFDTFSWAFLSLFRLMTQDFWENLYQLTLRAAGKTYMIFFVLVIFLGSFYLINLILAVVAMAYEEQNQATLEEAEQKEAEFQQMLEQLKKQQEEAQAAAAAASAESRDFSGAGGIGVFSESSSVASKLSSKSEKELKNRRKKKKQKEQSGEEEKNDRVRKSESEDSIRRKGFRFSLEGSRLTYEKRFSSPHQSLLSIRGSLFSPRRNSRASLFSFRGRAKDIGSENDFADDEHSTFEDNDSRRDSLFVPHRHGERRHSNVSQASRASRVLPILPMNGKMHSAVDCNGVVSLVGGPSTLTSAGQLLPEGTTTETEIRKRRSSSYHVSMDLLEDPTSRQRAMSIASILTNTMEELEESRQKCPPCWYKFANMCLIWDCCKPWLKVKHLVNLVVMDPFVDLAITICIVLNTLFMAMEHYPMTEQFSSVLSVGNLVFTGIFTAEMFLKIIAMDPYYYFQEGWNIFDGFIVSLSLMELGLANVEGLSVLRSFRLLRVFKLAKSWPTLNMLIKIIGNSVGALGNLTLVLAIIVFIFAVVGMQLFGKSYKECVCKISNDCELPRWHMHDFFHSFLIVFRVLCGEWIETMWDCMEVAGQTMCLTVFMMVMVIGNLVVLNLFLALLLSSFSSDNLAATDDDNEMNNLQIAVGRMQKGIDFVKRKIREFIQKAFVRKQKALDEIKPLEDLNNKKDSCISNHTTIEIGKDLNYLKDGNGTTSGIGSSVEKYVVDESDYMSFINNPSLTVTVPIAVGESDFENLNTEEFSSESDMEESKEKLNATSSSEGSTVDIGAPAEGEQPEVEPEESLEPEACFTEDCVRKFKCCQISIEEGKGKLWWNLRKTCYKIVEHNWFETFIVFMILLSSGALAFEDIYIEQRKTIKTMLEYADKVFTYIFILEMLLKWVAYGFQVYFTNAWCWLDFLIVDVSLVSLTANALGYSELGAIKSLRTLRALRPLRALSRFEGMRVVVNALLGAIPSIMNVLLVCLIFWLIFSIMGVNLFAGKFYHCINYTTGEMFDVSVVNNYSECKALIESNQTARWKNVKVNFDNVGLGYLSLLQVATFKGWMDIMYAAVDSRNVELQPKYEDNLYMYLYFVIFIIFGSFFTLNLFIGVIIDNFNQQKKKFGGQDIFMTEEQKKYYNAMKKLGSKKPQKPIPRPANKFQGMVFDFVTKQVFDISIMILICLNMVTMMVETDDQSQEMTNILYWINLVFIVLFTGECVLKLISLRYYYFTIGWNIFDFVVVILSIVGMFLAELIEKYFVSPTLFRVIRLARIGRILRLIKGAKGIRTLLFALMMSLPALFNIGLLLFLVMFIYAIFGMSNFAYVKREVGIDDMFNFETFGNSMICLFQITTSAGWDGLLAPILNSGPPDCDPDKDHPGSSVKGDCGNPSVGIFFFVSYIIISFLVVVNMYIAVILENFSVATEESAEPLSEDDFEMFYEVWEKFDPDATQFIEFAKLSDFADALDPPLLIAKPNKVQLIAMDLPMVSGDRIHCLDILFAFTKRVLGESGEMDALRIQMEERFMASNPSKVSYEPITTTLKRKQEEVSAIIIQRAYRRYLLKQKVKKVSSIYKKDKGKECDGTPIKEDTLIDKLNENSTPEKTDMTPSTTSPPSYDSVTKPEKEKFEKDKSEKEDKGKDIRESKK

[2] = target: T1, Sodium channel protein type 2 subunit alpha; assay: Inhibition of human Nav1.2 expressed in HEK293 cells at -120 mv holding potential measured after 5 mins by whole cell voltage clamp electrophysiological analysis; format: cell-based
Target sequence in this assay (Q99250 whole entry): as the sequence (Q99250 whole entry, looked up) above

[3] = target: Sodium channel protein type 8 subunit alpha (Homo sapiens) (UniProt Q9UQD0); assay: Inhibition of human Nav1.6 expressed in CHO cells assessed as test to control ratio at 1 uM by whole cell voltage clamp electrophysiological analysis; format: cell-based
Sequence of Sodium channel protein type 8 subunit alpha (Homo sapiens) (Q9UQD0 whole entry, looked up): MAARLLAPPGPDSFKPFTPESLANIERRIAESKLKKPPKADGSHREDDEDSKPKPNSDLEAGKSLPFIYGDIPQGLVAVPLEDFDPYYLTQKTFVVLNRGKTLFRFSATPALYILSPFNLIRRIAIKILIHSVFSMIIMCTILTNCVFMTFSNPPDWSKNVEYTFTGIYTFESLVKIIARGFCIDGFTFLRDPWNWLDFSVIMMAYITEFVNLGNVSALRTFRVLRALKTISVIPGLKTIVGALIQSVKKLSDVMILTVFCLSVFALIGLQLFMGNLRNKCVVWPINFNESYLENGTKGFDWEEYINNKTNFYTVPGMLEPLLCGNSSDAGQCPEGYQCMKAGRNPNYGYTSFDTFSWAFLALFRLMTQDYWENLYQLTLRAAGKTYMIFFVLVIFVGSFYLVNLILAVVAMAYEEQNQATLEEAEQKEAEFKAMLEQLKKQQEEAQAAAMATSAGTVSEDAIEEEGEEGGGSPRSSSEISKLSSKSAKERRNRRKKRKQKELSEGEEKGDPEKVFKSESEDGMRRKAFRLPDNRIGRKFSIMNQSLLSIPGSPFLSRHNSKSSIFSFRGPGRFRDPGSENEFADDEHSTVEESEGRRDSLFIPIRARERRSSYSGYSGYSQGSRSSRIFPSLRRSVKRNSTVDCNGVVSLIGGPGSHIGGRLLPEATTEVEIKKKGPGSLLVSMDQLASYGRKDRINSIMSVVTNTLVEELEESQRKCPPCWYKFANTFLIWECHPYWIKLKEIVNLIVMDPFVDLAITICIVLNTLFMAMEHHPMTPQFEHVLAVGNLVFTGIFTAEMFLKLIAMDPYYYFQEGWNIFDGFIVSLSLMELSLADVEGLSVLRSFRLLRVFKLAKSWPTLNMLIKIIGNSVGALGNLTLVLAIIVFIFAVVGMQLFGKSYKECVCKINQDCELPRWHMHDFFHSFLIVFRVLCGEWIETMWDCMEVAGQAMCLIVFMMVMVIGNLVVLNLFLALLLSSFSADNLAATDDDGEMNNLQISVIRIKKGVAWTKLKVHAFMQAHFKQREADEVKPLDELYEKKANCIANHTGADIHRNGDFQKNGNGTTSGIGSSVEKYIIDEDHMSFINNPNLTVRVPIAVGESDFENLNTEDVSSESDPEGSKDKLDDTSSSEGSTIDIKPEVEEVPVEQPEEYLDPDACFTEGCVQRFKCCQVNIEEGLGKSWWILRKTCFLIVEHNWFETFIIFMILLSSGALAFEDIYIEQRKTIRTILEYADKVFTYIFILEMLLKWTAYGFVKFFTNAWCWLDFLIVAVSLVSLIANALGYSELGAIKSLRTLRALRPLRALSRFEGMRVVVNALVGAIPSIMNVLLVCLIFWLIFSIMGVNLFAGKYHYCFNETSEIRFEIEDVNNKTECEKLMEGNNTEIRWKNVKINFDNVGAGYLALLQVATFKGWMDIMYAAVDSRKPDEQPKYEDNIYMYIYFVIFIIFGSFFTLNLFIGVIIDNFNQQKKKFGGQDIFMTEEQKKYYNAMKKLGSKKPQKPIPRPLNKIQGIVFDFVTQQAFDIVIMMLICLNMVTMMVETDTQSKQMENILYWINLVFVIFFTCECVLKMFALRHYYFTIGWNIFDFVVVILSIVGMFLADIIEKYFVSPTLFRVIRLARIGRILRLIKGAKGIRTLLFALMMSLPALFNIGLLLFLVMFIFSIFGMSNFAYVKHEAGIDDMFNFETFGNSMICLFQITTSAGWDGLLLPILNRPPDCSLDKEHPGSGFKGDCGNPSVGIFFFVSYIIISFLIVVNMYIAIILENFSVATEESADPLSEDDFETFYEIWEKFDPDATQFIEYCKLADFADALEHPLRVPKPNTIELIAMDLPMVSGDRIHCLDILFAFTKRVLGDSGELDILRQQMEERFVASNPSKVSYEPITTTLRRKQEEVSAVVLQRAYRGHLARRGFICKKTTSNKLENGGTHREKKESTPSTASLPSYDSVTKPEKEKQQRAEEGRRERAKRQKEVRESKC

[4] = AUC (0 to infinity) in male ICR mouse at 20 mg/kg, po measured after 24 hrs by LC-MS/MS analysis; format: ADME, organism-based; settings: in vivo
[5] = MRT (0 to infinity) in male ICR mouse at 20 mg/kg, po measured after 24 hrs by LC-MS/MS analysis; format: ADME, organism-based; settings: in vivo
[6] = Half-life in male ICR mouse at 20 mg/kg, po measured after 24 hrs by LC-MS/MS analysis; format: ADME, organism-based; settings: in vivo
[7] = Cmax in male ICR mouse at 10 mg/kg, ip measured after 24 hrs by LC-MS/MS analysis; format: ADME, organism-based; settings: in vivo
[8] = Bioavailability in male ICR mouse at 10 mg/kg, ip measured after 24 hrs by LC-MS/MS analysis; format: ADME, organism-based; settings: in vivo
[9] = Clearance in male ICR mouse at 1 mg/kg, iv measured after 24 hrs by LC-MS/MS analysis; format: ADME, organism-based; settings: in vivo
[10] = Half-life in male ICR mouse at 1 mg/kg, iv measured after 24 hrs by LC-MS/MS analysis; format: ADME, organism-based; settings: in vivo
[11] = Drug concentration in male ICR mouse plasma at 20 mg/kg, po measured after 0.25 hrs by LC-MS/MS analysis; format: ADME, organism-based
[12] = Drug concentration in male ICR mouse plasma at 10 mg/kg, ip measured after 0.25 hrs by LC-MS/MS analysis; format: ADME, organism-based
[13] = Drug concentration in male ICR mouse plasma at 10 mg/kg, ip measured after 0.5 hrs by LC-MS/MS analysis; format: ADME, organism-based
[14] = Drug concentration in male ICR mouse brain at 20 mg/kg, po measured after 0.5 hrs by LC-MS/MS analysis; format: ADME, organism-based; settings: read-out: Ct
[15] = Ratio of drug concentration in male ICR mouse brain to plasma at 20 mg/kg, po measured after 0.5 hrs by LC-MS/MS analysis; format: ADME, organism-based; settings: read-out: BPR
[16] = test system: Mus musculus; assay: Antiepileptic activity in MES-induced seizure male ICR mouse model assessed as protection against tonic hind limb extension administered intraperitoneally for 30 mins; format: functional; settings: 0.5 h, route ip
[17] = Neurotoxicity in male ICR mouse assessed as motor impairment at 25 mg/kg, ip administered for 30 mins by rotarod test relative to control; format: toxicity, organism-based; settings: in vivo, 0.5 h
[18] = Neurotoxicity in male ICR mouse administered intraperitoneally for 30 mins; format: toxicity; settings: in vivo, route ip

Compound: COc1cccc(-c2cc(N3CCCc4ccccc4C3)nc(N)n2)c1
- T/C [1]: 0.03
- IC50 [2]: 11 µM
- T/C [3]: 0.06
- AUC(0-inf) [4]: 118 ng·h/mL
- MRT inf [5]: 2.16 h
- half-life [6]: 1.38 h
- Cmax [7]: 956 ng/mL
- bioavailability [8]: 43%
- clearance [9]: 92.1 mL/min/kg
- half-life [10]: 0.52 h
- concentration at 0.25 h [11]: 166 ng/mL
- concentration at 0.25 h [12]: 620 ng/mL
- concentration at 0.5 h [13]: 221 ng/mL
- concentration at 0.5 h [14]: 59.3 ng/g
- Kp at 0.5 h [15]: 3.2
- ED50 [16]: 3.2 mg/kg
- Activity [17]: 18%
- TD50 at 0.5 h [18]: 26.1 mg/kg
